Test results: US12006294B2, “Therapeutic compounds” (REGENTS OF THE UNIVERSITY OF MINNESOTA, priority 2017, dated 2024)
Structures can show the parent of a compound that is named as a salt. Where two headings read alike, the source gives them in different places.

Tested on: Hela Cells
Experiment: Cellular ER stress model (tunicamycin, WST-8 cell viability)
Details: Homo sapiens, HeLa, 48 h
[1] = read-out: % Cell Survival Cmpd(2.5 μM) + Tuni
[2] = read-out: Compounds ERS (vs Tn)
[3] = read-out: % Cell Survival Cmpd(2.5 μM) + Tuni, Hela cells, compound 2.5 μM + tunicamycin, WST-8 viability 48 hours after tunicamycin treatment
[4] = read-out: Compounds ERS (vs Tn), ERS activity vs Tuni = % cell survival (compound)/% cell survival (tunicamycin), compound 2.5 μM

Row | SMILES | viability at 2.5 µM [1] | viability at 2.5 µM [2] | viability at 2.5 µM [3] | viability at 2.5 µM [4]
1 | N=C(N)N/N=C/c1c(O)cccc1Cl [BC2-59-2] | 39% | 94% |  | 
2 | NC(=S)N/N=C/c1c(F)cccc1Cl [JM1-113-2, (E)-2-(2-chloro-6-fluorobenzylidene)hydrazine-1-carbothioamide] |  |  | 27.6% | 40%
3 | Cc1cccc(C)c1/C=N/NC(N)=S [JM1-121-2, (E)-2-(2,6-dimethylbenzylidene)hydrazine-1-carbothioamide] |  |  | 23.4% | 34%
4 | NC(=S)N/N=C/c1ccc2ccccc2c1 [JM1-129-2, (E)-2-(naphthalen-2-ylmethylene)hydrazine-1-carbothioamide] |  |  | 24.1% | 35%
5 | N=C(N)N/N=C/c1c(Br)cccc1[N+](=O)[O-] [JM1-175-2, (E)-2-(2-bromo-6-nitrobenzylidene)hydrazine-1-carboximidamide acetate] |  |  | 44.9% | 65%
6 | N=C(N)N/N=C/c1cc(F)ccc1Cl [JM1-185-2, (E)-2-(2-chloro-5-fluorobenzylidene)hydrazine-1-carboximidamide acetate] |  |  | 54.4% | 79%
7 | N=C(N)N/N=C/c1c(F)cccc1F [JM1-191-2, (E)-2-(2,6-difluorobenzylidene)hydrazine-1-carboximidamide acetate] |  |  | 45.7% | 66%
8 | Nc1ccnn1-c1c(Cl)cccc1Cl [JM1-217-2, 1-(2,6-dichlorophenyl)-1H-pyrazol-5-amine] |  |  | 40.6% | 97%
9 | N=C(N)N/N=C/c1cc(C(F)(F)F)ccc1Cl [JM1-221-2, (E)-2-(2-chloro-5-(trifluoromethyl)benzylidene)hydrazine-1-carboximidamide acetate] |  |  | 38.6% | 56%
10 | N=C(N)N/N=C/c1c(F)cccc1C(F)(F)F [JM1-223-2, (E)-2-(2-fluoro-6-(trifluoromethyl)benzylidene)hydrazine-1-carboximidamide acetate] |  |  | 37.5% | 54%
11 | CC/C(=N\NC(=N)N)c1cccc(Cl)c1 [JM1-257-2, (E)-2-(1-(3-chlorophenyl)propylidene)hydrazine-1-carboximidamide] |  |  | 34.6% | 50%
12 | N=C(N)Nc1ccnn1-c1c(Cl)cccc1Cl [JM1-285-2, 1-(1-(2,6-dichlorophenyl)-1H-pyrazol-5-yl)guanidine] |  |  | 41.9% | 101%
13 | Cc1cccc(C)c1NC1=NCCN1 [JM2-59-2, N-(2,6-dimethylphenyl)-4,5-dihydro-1H-imidazol-2-amine] | 46.2% | 67% |  | 
14 | COc1cc(Cl)c(/C=N/NC(=N)N)c(Cl)c1 [JM2-63-2, (E)-2-(2,6-dichloro-4-methoxybenzylidene)hydrazine-1-carboximidamide] |  |  | 44.6% | 65%
15 | Clc1cccc(Cl)c1/C=N/NC1=NCCN1 [JM2-83-2, (E)-2-(2-(2,6-dichlorobenzylidene)hydrazinyl)-4,5-dihydro-1H-imidazole hydrochloride] |  |  | 53.8% | 125%
16 | Cc1cccc(C)c1/C=N/NC1=NCCN1 [JM2-85-2, (E)-2-(2-(2,6-dimethylbenzylidene)hydrazinyl)-4,5-dihydro-1H-imidazole hydrochloride] |  |  | 62.3% | 145%
17 | Clc1cccc(Cl)c1CC1=NCCN1 [JM2-87-2, 2-(2,6-dichlorobenzyl)-4,5-dihydro-1H-imidazole] |  |  | 54.3% | 124%
18 | O=[N+]([O-])c1cccc(Cl)c1/C=N/NC1=NCCN1 [JM2-89-2, (E)-2-(2-(2-chloro-6-nitrobenzylidene)hydrazinyl)-4,5-dihydro-1H-imidazole hydrochloride] |  |  | 56.9% | 130%
19 | Clc1ccc(/C=N/NC2=NCCN2)cc1Cl [JM2-91-2, (E)-2-(2-(3,4-dichlorobenzylidene)hydrazinyl)-4,5-dihydro-1H-imidazole hydrochloride] |  |  | 54.5% | 124%
20 | Fc1cccc(Cl)c1/C=N/NC1=NCCN1 [JM2-95-2, (E)-2-(2-(2-chloro-6-fluorobenzylidene)hydrazinyl)-4,5-dihydro-1H-imidazole hydrochloride] |  |  | 53% | 121%
21 | Clc1cccc(Cl)c1NC1=NCCN1 [JM2-97-2, N-(2,6-dichlorophenyl)-4,5-dihydro-1H-imidazol-2-amine hydrochloride] | 63.1% | 147% |  | 
22 | CC(C1=NCCN1)c1c(Cl)cccc1Cl (stereo not shown) [JM2-101-2, 2-(1-(2,6-dichlorophenyl)ethyl)-4,5-dihydro-1H-imidazole] |  |  | 49.5% | 107%

Row | SMILES | viability at 2.5 µM [1] | viability at 2.5 µM [2] | viability at 2.5 µM [3] | viability at 2.5 µM [4]
23 | Fc1cccc(F)c1/C=N/NC1=NCCN1 [JM2-103-2, (E)-2-(2-(2,6-difluorobenzylidene)hydrazinyl)-4,5-dihydro-1H-imidazole hydrochloride] |  |  | 48.7% | 105%
24 | O=[N+]([O-])c1cccc(Br)c1/C=N/NC1=NCCN1 [JM2-109-2, (E)-2-(2-(2-bromo-6-nitrobenzylidene)hydrazinyl)-4,5-dihydro-1H-imidazole hydrochloride] |  |  | 50.2% | 108%
25 | Clc1ccccc1/C=N/NC1=NCCN1 [JM2-113-2, (E)-2-(2-(2-chlorobenzylidene)hydrazinyl)-4,5-dihydro-1H-imidazole hydrochloride] |  |  | 35.2% | 111%
26 | Fc1ccccc1/C=N/NC1=NCCN1 [JM2-115-2, (E)-2-(2-(2-fluorobenzylidene)hydrazinyl)-4,5-dihydro-1H-imidazole hydrochloride] |  |  | 35.6% | 112%
27 | FC(F)(F)c1cccc(Cl)c1/C=N/NC1=NCCN1 [JM2-131-2, (E)-2-(2-(2-chloro-6-(trifluoromethyl)benzylidene)hydrazinyl)-4,5-dihydro-1H-imidazole hydrochloride] |  |  | 62.6% | 198%
28 | CNC(=N)N/N=C/c1c(Cl)cccc1Cl [JM2-171-2, (E)-2-(2,6-dichlorobenzylidene)-N-methylhydrazine-1-carboximidamide hydroiodide] |  |  | 67% | 212%
29 | N=C(N/N=C/c1c(Cl)cccc1Cl)Nc1ccccc1 [JM2-175-2, (E)-2-(2,6-dichlorobenzylidene)-N-phenylhydrazine-1-carboximidamide hydroiodide] |  |  | 34.3% | 108%
30 | N=C(N)NNCc1c(Cl)cccc1Cl [JM2-185-2] |  |  | 31.7% | 100%
31 | Brc1ccccc1/C=N/NC1=NCCN1 [JM2-191-2, (E)-2-(2-(2-bromobenzylidene)hydrazinyl)-4,5-dihydro-1H-imidazole hydrochloride] |  |  | 39.5% | 125%
32 | N=C(N)N/N=C/c1c(Cl)cc(OCc2ccccc2)cc1Cl [JM2-195-2, (E)-2-(4-(benzyloxy)-2,6-dichlorobenzylidene)hydrazine-1-carboximidamide acetate] |  |  | 24.1% | 76%
33 | Cc1cc(=O)nc(N/N=C/c2c(F)cccc2Cl)[nH]1 [JM2-203-2, (E)-2-(2-(2-chloro-6-fluorobenzylidene)hydrazinyl)-6-methylpyrimidin-4(1H)-one] |  |  | 19.7% | 103%
34 | CCc1cccc(CC)c1/C=N/NC(=N)N [JM2-233-2] |  |  | 31.8% | 121%
35 | Clc1cccc(Cl)c1/C=N/NC1=NCCCN1 [JM2-255-2, (E)-2-(2-(2,6-dichlorobenzylidene)hydrazinyl)-1,4,5,6-tetrahydropyrimidine hydrochloride] |  |  | 63.8% | 201%
36 | Cc1cccc(Cl)c1/C=N/NC1=NCCCN1 [JM2-265-2, (E)-2-(2-(2-chloro-6-methylbenzylidene)hydrazinyl)-1,4,5,6-tetrahydropyrimidine hydrochloride] |  |  | 47.2% | 179%
37 | Clc1cccc(Cl)c1CC1=NCCCN1 [JM2-271-2, 2-(2,6-dichlorobenzyl)-1,4,5,6-tetrahydropyrimidine] |  |  | 32.3% | 123%
38 | N=C(N)NC(=O)Cc1c(Cl)cccc1[N+](=O)[O-] [JM2-275-2, N-carbamimidoyl-2-(2-chloro-6-nitrophenyl)acetamide hydrochloride] |  |  | 29.8% | 101%
39 | N=C(N)N/N=C/c1cccs1 [JM2-279-2, (E)-2-(thiophen-2-ylmethylene)hydrazine-1-carboximidamide] |  |  | 32.1% | 122%
40 | N=C(N)NC(=O)Cc1c(Cl)cccc1Cl [JM2-287-2, N-carbamimidoyl-2-(2,6-dichlorophenyl)acetamide hydrochloride] |  |  | 33% | 111%
41 | CN(C)C(=N)N/N=C/c1c(Cl)cccc1Cl [JM2-289-2, (E)-2-(2,6-dichlorobenzylidene)-N,N-dimethylhydrazine-1-carboximidamide hydroiodide] |  |  | 33.8% | 128%
42 | N=C(N)N/N=C/c1cc(Cl)ccc1Cl [JM3-11-2, (E)-2-(2,5-dichlorobenzylidene)hydrazine-1-carboximidamide acetate] |  |  | 40.2% | 153%
43 | N=C(N)N/N=C/c1ccccc1[N+](=O)[O-] [JM3-13-2, (E)-2-(2-nitrobenzylidene)hydrazine-1-carboximidamide acetate] |  |  | 27.4% | 104%
44 | N=C(N)N/N=C/c1ccccc1O [JM3-17-2, (E)-2-(2-hydroxybenzylidene)hydrazine-1-carboximidamide acetate] |  |  | 28.7% | 109%
